Data on 16 compounds can be found in US8207347B2, “Pyridone derivatives as NK3 antagonists” (H. Lundbeck A/S, priority 2009, dated 2012).

The target of one series is T1, human NK3 receptor (Homo sapiens, UniProt P29371).
T1 construct: expressed in transfected cells
T1 sequence (P29371 1-465): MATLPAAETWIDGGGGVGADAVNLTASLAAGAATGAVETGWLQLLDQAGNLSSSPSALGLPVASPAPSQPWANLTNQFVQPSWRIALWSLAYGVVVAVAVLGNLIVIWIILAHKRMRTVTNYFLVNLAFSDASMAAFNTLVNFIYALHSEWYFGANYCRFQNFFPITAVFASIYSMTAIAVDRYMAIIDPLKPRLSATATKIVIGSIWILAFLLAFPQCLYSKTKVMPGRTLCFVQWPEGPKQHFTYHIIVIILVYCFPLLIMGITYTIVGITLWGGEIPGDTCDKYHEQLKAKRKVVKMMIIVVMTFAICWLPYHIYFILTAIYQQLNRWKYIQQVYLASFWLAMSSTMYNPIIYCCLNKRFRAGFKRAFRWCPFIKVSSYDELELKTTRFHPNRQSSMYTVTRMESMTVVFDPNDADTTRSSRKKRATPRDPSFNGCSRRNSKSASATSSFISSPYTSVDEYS
As to the kind of experiment: NK3 receptor binding assay (filter-based competition binding, 3H-AE93103). As to conditions: BHK cell membranes expressing human NK3 receptor; Ki from IC50 by Cheng Prusoff equation; read-out: Affinity (Ki/nM). On the procedure: BHK cells stably expressing the human NK3 receptor were seeded in harvesting plates in Dulbeccos MEM containing GlutaMax (862 mg/l), 1 mM sodium pyruvate, 10% fetal calf serum, 1% Pen/Strep, 1 mg/ml G418 and were grown at 34° C. in a humidified atmosphere containing 10% CO2. To increase receptor expression, 10 μM trichotatin A was added to the media 24 hours before harvest of the cells at a confluency of app 90%. Prior to the harvesting, the cells were washed twice with PBS without Mg^2+ of Ca^2+ and subsequently scrapped of in 10 ml PBS pr harvesting plate. The cells suspension were centrifuged at 1500×G in three minutes before resuspension in 15 mM Tris-HCl buffer pH 7.5 containing 2 mM MgCl2; 0.3 mM EDTA and 1 mM EGTA (buffer A). The cell suspension was homogenised and subsequently centrifuged at 40000×G in 30 minutes. The membrane-pellet was resuspended in buffer A containing 250 mM sucrose, aliquoted and stored at −80° C.
The assay is performed as a filter-based competition-binding in a 50 mM Tris pH 7.4 assay buffer containing 120 mM NaCl and 3 mM MnCl2. App 0.05 nM ^3H-AE93103 was mixed with test compounds before addition of 0.15 μg of a homogenised NK3 membrane preparation in a total volume of 300 μl. The assay plate is incubated for 90 min at RT before content of the wells is transferred using a cell-harvester to GF/C filter plates, which has been pretreated with 0.1% PEI. The filter is washed 3 times with 1 ml an ice-cold 50 mM Tris buffer, pH 7.4. The filter is dried and added scintillation liquid before the plate is counted in a topcounter 5 minutes pr well.
The total binding, which comprised less than 10% of added radioligand, was defined using assay buffer whereas the non-specific binding was defined in the presence of 1 μM SR142801. The non-specific binding constituted ˜10% of the total binding.
Data points are expressed in percent of the specific binding of ^3H-AE93103 and the […] (concentration causing 50% inhibition of ^3H-AE93103 specific binding) are determined by non-linear regression analysis using a sigmoidal variable slope curve fitting.
On to `CCCn1c(C)c(C(=O)N[C@H](c2cc(F)cc(F)c2)C2CCC2)c(C)c(Br)c1=O` [Example 1ak, 5-Bromo-2,4-dimethyl-6-oxo-1-propyl-1,6-dihydro-pyridine-3-carboxylic acid [(S)-cyclobutyl-(3,5-difluoro-phenyl)-methyl]-amide], for which the Ki stood at 49 nM.

With `CCCNn1c(C)c(C(=O)N[C@H](c2ccccc2)C2CCC2)c(C)c(Br)c1=O` [Example 1i, 5-Bromo-2,4-dimethyl-6-oxo-1-propylamino-1,6-dihydro-pyridine-3-carboxylic acid ((S)-cyclobutyl-phenyl-methyl)-amide], the Ki is 16 nM.

Consider `CCCn1c(C)c(C(=O)N[C@H](c2ccccc2Cl)C2CC2)c(C)c(Br)c1=O` [Example 1s, 5-Bromo-2,4-dimethyl-6-oxo-1-propyl-1,6-dihydro-pyridine-3-carboxylic acid [(S)-(2-chloro-phenyl)-cyclopropyl-methyl]-amide], for which the Ki stood at 67 nM.

Consider `CCCn1c(C)c(C(=O)N[C@H](c2ccccc2)C2CCC2)c(C)c(Br)c1=O` [Example 1z, 5-Bromo-2,4-dimethyl-6-oxo-1-propyl-1,6-dihydro-pyridine-3-carboxylic acid ((S)-cyclobutyl-phenyl-methyl)-amide], for which the Ki was 36 nM.

With `Cc1c(C(=O)N[C@H](c2cccc(F)c2)C2CCC2)c(C)n(-c2ccccc2)c(=O)c1Br` [Example 2a, 5-Bromo-2,4-dimethyl-6-oxo-1-phenyl-1,6-dihydro-pyridine-3-carboxylic acid [(S)-cyclobutyl-(3-fluoro-phenyl)-methyl]-amide], the Ki worked out at 52 nM.

As to `CCNn1c(C)c(C(=O)N[C@H](c2cccc(F)c2)C2CCC2)c(C)c(Br)c1=O` [Example 2c, 5-Bromo-1-ethylamino-2,4-dimethyl-6-oxo-1,6-dihydro-pyridine-3-carboxylic acid [(S)-cyclobutyl-(3-fluoro-phenyl)-methyl]-amide], the Ki was 24 nM.

For `CCCn1c(C)c(C(=O)N[C@H](c2cccc(F)c2)C2CCC2)c(C)c(Br)c1=O` [Example 2d, 5-Bromo-2,4-dimethyl-6-oxo-1-propyl-1,6-dihydro-pyridine-3-carboxylic acid [(S)-cyclobutyl-(3-fluoro-phenyl)-methyl]-amide], the Ki is 30 nM.

As to `CCc1c(C(=O)N[C@H](c2cccc(F)c2)C2CCC2)c(C)n(-c2ccccc2)c(=O)c1Br` [Example 2e, 5-Bromo-4-ethyl-2-methyl-6-oxo-1-phenyl-1,6-dihydro-pyridine-3-carboxylic acid [(S)-cyclobutyl-(3-fluoro-phenyl)-methyl]-amide], the Ki stood at 50 nM.

On to `CCCc1c(C(=O)N[C@H](c2cccc(F)c2)C2CCC2)c(C)n(-c2ccccc2)c(=O)c1Br` [Example 2f, 5-Bromo-2-methyl-6-oxo-1-phenyl-4-propyl-1,6-dihydro-pyridine-3-carboxylic acid [(S)-cyclobutyl-(3-fluoro-phenyl)-methyl]-amide], for which the Ki is 90 nM.

As for `Cc1c(C(=O)N[C@H](c2cccc(F)c2)C2CCC2)c(C(F)(F)F)c(Br)c(=O)n1-c1ccccc1` [Example 2g, 5-Bromo-2-methyl-6-oxo-1-phenyl-4-trifluoromethyl-1,6-dihydro-pyridine-3-carboxylic acid [(S)-cyclobutyl-(3-fluoro-phenyl)-methyl]-amide], the Ki stood at 7 nM.

As for `Cc1c(C(=O)N[C@H](c2cccc(F)c2)C2CCC2)c(C(F)(F)F)c(Cl)c(=O)n1-c1ccccc1` [Example 2m, 5-Chloro-2-methyl-6-oxo-1-phenyl-4-trifluoromethyl-1,6-dihydro-pyridine-3-carboxylic acid [(S)-cyclobutyl-(3-fluoro-phenyl)-methyl]-amide], the Ki was 24 nM.

As to `CCCNn1c(C)c(C(=O)N[C@H](c2cccc(F)c2)C2CCC2)c(C)c(C#N)c1=O` [Example 3b, 5-Cyano-2,4-dimethyl-6-oxo-1-propylamino-1,6-dihydro-pyridine-3-carboxylic acid [(S)-cyclobutyl-(3-fluoro-phenyl)-methyl]-amide], the Ki is 22 nM.

As for `Cc1c(C(=O)N[C@H](c2cccc(F)c2)C2CCC2)c(C)n(Cc2ncco2)c(=O)c1C#N` [Example 3d, 5-Cyano-2,4-dimethyl-1-oxazol-2-ylmethyl-6-oxo-1,6-dihydro-pyridine-3-carboxylic acid [(S)-cyclobutyl-(3-fluoro-phenyl)-methyl]-amide], the Ki worked out at 34 nM.

With `C#Cc1c(C)c(C(=O)N[C@H](c2cccc(F)c2)C2CCC2)c(C)n(-c2ccccc2)c1=O` [Example 3e, 5-Ethynyl-2,4-dimethyl-6-oxo-1-phenyl-1,6-dihydro-pyridine-3-carboxylic acid [(S)-cyclobutyl-(3-fluoro-phenyl)-methyl]-amide], the Ki was 240 nM.

System in a further series: not given
Experiment: not given
To be noted: Am. J. Psychiatry, 161, 2004, 975-984; cited from earlier work.
For `CC(=O)N(C)C1(c2ccccc2)CCN(CCC[C@]2(c3ccc(Cl)c(Cl)c3)CCCN(C(=O)c3ccccc3)C2)CC1` [Osanetant, osanetant], the “effect in clinical trials, in particular on positive symptoms of psychosis” value was “superior to placebo”.

The series is the same for the next values; noted with them: schizophrenics; Curr. Opion. Invest. Drug, 6, 717-721, 2005; cited from earlier work.
For the compound `CC[C@H](NC(=O)c1c(O)c(-c2ccccc2)nc2ccccc12)c1ccccc1` [talnetant], the “effect on cognitive behaviour in clinical trials” value is given as “ameliorate the cognitive behaviour of schizophrenics”.

System in the next series: not given
Experiment: not given
To be noted: Nature reviews, 4, 967-975, 2005; cited from earlier work.
As for `CC(=O)N(C)C1(c2ccccc2)CCN(CCC[C@]2(c3ccc(Cl)c(Cl)c3)CCCN(C(=O)c3ccccc3)C2)CC1` [Osanetant, osanetant], the bioavailability entry is given as “poor”, the blood-brain barrier penetration entry was “poor”, the clearance entry is “relatively high” and the solubility entry was “poor”.

For `CC[C@H](NC(=O)c1c(O)c(-c2ccccc2)nc2ccccc12)c1ccccc1` [talnetant], the bioavailability result is on record as “poor”, the blood-brain barrier penetration result is given as “poor”, the clearance entry is “relatively high” and the solubility entry is reported as “poor”.
